The values below come from PMC5097887 (European journal of medicinal chemistry, 2016).

The conditions of data set [1]: computed value; Table 1 footnote b; cited from earlier work.
For another data set, the target named is rat brain TSPO (Rattus norvegicus, UniProt P16257). In kind it is binding. The note with it: for LipE: pKi minus clogD; for binding affinity for TSPO (in words): locked amide rotamers of ligand 22.
The format of data set [2] is physicochemical. The note with it: n-octanol/sodium phosphate buffer, pH 7.4.

Take `CCC(C)N(C)C(=O)c1cc2ccccc2c(-c2ccccc2Cl)n1` (centres unmarked) [Ligand 1, PK11195]: in data set [1], the cLogD was 3.97.

Turning to `CC(Oc1cc(-c2ccccn2)nc2ncccc12)C(=O)N(C)c1ccccc1` (centres unmarked) [Ligand 20, N-Methyl-N-phenyl-2-[2-(pyridin-2-yl)-1,8-naphthyridin-4-yloxy]propanamide], at rat brain TSPO, the Ki was 0.5 ± 0.1 nM and the LipE amounted to 6.5 ± 0.1. Moreover, the logD in data set [2] turned out to be 2.48.

Regarding `CC(Oc1cc(-c2ncccn2)nc2ccccc12)C(=O)N(C)c1ccccc1` (centres unmarked) [Ligand 21, N-Methyl-N-phenyl-2-[2-(pyrimidin-2-yl)quinolin-4-yl]oxypropanamide], at rat brain TSPO, the affinity corresponds to a Ki of 0.53 ± 0.08 nM and the LipE is 6.6 ± 0.1. In addition, the logD in data set [2] was found to be 2.48.

`CC(Oc1cc(-c2ccccn2)nc2ccccc12)C(=O)N(C)C(C)C` (centres unmarked) [Ligand 22, N-Isopropyl-N-methyl-2-[2-(pyridin-2-yl)quinolin-4-yloxy]propanamide]: at rat brain TSPO, the affinity, expressed as Ki, was 0.76 ± 0.09 nM and the LipE was found to be 6.58 ± 0.05.

At rat brain TSPO, `CC(Oc1cc(-c2ccccn2)nc2ccccc12)C(=O)N(C)c1ccc(F)cc1` (centres unmarked) [Ligand 23, N-(4-Fluorophenyl)-N-methyl-2-[2-(pyridin-2-yl)quinolin-4-yloxy]propanamide] yielded a Ki of 0.09 ± 0.01 nM and a LipE of 5.80 ± 0.06.

At rat brain TSPO, `COc1cc(OC(C)C(=O)N(C)c2ccccc2)c2cccnc2n1` (centres unmarked) [Ligand 27, 2-(2-Methoxy-1,8-naphthyridin-4-yloxy)-N-methyl-N-phenylpropanamide] yielded a Ki of 7.8 ± 0.6 nM and a LipE of 6.09 ± 0.04.

At rat brain TSPO, `CC(Oc1cc(-n2cccc2)nc2ccccc12)C(=O)N(C)c1ccccc1` (centres unmarked) [Ligand 29, 2-[2-(1H-Pyrrol-1-yl)quinolin-4-yloxy]-N-methyl-N-phenylpropanamide] displayed a Ki of 0.22 ± 0.03 nM and a LipE of 6.13 ± 0.07.

Consider `CN1C(=O)C(Oc2cc(-c3ccccn3)nc3ccccc23)CC1(C)C` (centres unmarked) [Ligand 33, 1,5,5-Trimethyl-3-[2-(pyridin-2-yl)quinolin-4-yloxy]pyrrolidin-2-one], for which, at rat brain TSPO, the Ki was over 1000 nM and the LipE is under 3.93.

On to `CC(C)N1CCC(Oc2cc(-c3ccccn3)nc3ccccc23)C1=O` (centres unmarked) [Ligand 34, 1-Isopropyl-3-[2-(pyridin-2-yl)quinolin-4-yloxy]pyrrolidin-2-one], for which, on rat brain TSPO, the Ki was over 1000 nM, the “binding affinity for TSPO (in words)” value is reported as “lacked any appreciable binding affinity” and the LipE is under 3.36.

For `O=[N+]([O-])c1ccccc1NCc1ccccn1` [Ligand 35, 2-Nitro-N-(pyridin-2-ylmethyl)aniline], the “binding affinity for TSPO (in words)” value at rat brain TSPO is listed as “lacked any appreciable binding affinity”.

At rat brain TSPO, `CC(On1c(-c2ccccn2)nc2ccccc21)C(=O)N(C)C(C)C` (centres unmarked) [Ligand 36, N-Isopropyl-N-methyl-2-(2-(pyridin-2-yl)-1H-benzo[d]imidazol-1-yloxy)propanamide] came in with a Ki of over 1000 nM and a LipE of under 2.47.
